Assay results published in patent US9464073B2, “Pyrimidine hydroxy amide compounds as HDAC6 selective inhibitors” (Acetylon Pharmaceuticals, Inc., priority 2014, dated 2016).
pIC50: −log10 of the molar value. Entries after “also recorded” stand apart in the source; their conditions may differ.

Experiments:
[1] = target: HDAC1 (Homo sapiens (Human), UniProt Q13547); assay: HDAC enzyme assay (HDAC1); assay type: biochemical
Description: (§1) Compounds for testing were diluted in DMSO to 50 fold the final concentration and a ten point three fold dilution series was made. The compounds were diluted in assay buffer (50 mM HEPES, pH 7.4, 100 mM KCl, 0.001% Tween-20, 0.05% BSA, 20 μM TCEP) to 6 fold their final concentration. The HDAC enzymes (purchased from BPS Biosciences) were diluted to 1.5 fold their final concentration in assay buffer. The tripeptide substrate and trypsin at 0.05 μM final concentration were diluted in assay buffer at 6 fold their final concentration. The final enzyme concentrations used in these assays were 3.3 ng/ml (HDAC1), 0.2 ng/ml (HDAC2), 0.08 ng/ml (HDAC3) and 2 ng/ml (HDAC6). The final substrate concentrations used were 16 μM (HDAC1), 10 μM (HDAC2), 17 μM (HDAC3) and 14 μM (HDAC6).
(§2) Five μl of compounds and 20 μl of enzyme were added to wells of a black, opaque 384 well plate in duplicate. Enzyme and compound were incubated together at room temperature for 10 minutes. Five μl of substrate was added to each well, the plate was shaken for 60 seconds and placed into a Victor 2 microtiter plate reader. The development of fluorescence was monitored for 60 min and the linear rate of the reaction was calculated. The IC50 was determined using Graph Pad Prism by a four parameter curve fit.

[2] = target: HDAC2 (Homo sapiens (Human), UniProt Q92769); assay: HDAC enzyme assay (HDAC2); assay type: biochemical
Sequence of HDAC2 (Q92769 whole entry): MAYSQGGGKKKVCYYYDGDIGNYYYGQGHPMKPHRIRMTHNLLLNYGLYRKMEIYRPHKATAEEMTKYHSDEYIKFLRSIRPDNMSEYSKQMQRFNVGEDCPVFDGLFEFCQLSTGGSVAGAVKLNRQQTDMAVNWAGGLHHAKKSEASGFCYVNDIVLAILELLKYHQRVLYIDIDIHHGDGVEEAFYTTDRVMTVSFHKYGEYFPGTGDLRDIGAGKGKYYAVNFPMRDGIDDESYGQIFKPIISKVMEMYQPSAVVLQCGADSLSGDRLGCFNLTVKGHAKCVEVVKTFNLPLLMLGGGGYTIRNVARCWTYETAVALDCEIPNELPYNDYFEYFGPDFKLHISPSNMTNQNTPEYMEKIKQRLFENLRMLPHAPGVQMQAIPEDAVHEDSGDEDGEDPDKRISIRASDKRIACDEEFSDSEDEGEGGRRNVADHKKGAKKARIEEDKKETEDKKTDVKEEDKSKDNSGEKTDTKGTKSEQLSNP
Description: as §1, §2

[3] = target: HDAC3 (Homo sapiens (Human), UniProt O15379); assay: HDAC enzyme assay (HDAC3); assay type: biochemical
Sequence of HDAC3 (O15379 whole entry): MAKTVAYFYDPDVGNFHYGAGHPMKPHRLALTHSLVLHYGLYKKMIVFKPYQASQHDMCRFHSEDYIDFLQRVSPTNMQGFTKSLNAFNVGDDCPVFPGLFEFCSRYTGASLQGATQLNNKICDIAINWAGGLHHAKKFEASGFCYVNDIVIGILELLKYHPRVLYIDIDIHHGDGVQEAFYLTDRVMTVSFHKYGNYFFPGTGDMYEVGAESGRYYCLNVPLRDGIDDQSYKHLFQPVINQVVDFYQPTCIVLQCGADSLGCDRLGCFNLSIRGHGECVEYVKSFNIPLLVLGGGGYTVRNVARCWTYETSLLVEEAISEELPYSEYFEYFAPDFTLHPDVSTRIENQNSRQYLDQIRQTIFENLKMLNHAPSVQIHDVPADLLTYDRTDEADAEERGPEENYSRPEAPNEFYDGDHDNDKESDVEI
Sequence of HDAC3 (Q9Y618 395-489 partner): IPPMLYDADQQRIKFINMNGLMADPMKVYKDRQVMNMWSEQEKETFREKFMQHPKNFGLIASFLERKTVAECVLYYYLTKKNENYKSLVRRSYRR
Description: as §1, §2

[4] = target: HDAC6 (Homo sapiens (Human), UniProt Q9UBN7); assay: HDAC enzyme assay (HDAC6); assay type: biochemical
Sequence of HDAC6 (Q9UBN7 whole entry): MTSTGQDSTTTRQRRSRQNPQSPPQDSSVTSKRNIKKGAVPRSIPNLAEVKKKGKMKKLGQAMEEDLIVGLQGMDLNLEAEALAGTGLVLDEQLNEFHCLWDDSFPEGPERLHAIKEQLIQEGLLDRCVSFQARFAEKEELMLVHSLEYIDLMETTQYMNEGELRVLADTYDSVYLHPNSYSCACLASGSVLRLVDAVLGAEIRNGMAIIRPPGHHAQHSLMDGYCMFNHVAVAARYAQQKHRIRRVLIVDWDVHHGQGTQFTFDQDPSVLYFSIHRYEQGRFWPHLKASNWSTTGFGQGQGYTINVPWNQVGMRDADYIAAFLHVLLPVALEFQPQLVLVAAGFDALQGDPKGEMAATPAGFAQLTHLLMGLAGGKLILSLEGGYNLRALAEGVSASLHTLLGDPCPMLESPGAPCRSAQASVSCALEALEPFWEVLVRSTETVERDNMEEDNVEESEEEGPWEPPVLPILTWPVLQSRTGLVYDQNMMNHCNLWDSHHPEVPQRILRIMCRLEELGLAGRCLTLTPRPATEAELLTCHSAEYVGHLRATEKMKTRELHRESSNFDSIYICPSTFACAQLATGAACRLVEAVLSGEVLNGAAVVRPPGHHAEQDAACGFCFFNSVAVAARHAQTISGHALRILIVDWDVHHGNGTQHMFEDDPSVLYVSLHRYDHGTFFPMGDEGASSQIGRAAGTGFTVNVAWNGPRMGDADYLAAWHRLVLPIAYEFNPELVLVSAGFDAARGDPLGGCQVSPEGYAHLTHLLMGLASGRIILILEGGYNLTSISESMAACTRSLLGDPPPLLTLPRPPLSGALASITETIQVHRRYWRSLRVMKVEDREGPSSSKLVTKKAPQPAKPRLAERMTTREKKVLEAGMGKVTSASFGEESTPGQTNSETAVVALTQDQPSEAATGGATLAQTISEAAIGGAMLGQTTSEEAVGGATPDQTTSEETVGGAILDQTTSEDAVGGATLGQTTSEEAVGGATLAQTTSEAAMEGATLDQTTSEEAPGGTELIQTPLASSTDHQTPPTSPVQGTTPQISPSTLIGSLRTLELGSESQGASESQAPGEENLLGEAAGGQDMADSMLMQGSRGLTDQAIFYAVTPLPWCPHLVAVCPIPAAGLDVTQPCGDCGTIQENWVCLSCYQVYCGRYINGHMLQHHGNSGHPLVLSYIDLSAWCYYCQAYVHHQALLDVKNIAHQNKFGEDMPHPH
Description: as §1, §2

[5] = Rat pharmacokinetic studies; assay type: in vivo; conditions: plasma, male SD rats; for clearance: IV 1 mg/kg; for bioavailability: PO 5 mg/kg vs IV 1 mg/kg, dose adjusted AUC
Description: Male SD rats were fasted overnight. Compounds of the invention as well as two previously known HDAC6 inhibitors, Compounds A and B were dissolved in dimethyl acetamide at 10 times the final concentration, then Solutol HS 15 (BASF) was added to a final concentration of 10%. Finally 80% saline was added and vortexed to achieve a clear solution. For the IV dosing three animals were injected via the foot dorsal vein with 1 mg/kg compound. For the PO dosing 5 mg/kg of compound was delivered by oral gavage. Blood was collected via the tail vein into K2EDTA tubes at 5 minutes, 15 minutes, 30 minutes, 1 hour, 2 hours, 4 hours, 8 hours and 24 hours after dosing. The blood was centrifuged at 2000 g for 5 minutes at 4° C. to obtain plasma. The plasma was extracted with acetonitrile and the level of compound was analyzed by LC/MS/MS. The level of compound in plasma was calculated from a standard curve in rat plasma. The IV clearance and area under the curve were calculated using WinNonLin software. The dose adjusted area under the curve for the IV and oral dosing were used to calculate the oral bioavailability. Compounds A and B, previously known HDAC6 inhibitors, are shown below (See, e.g., U.S. Pat. No. 8,614,223): […]

[6] = Mouse pharmacokinetic studies; assay type: in vivo; conditions: male C57BL/6 mice, IV 1 mg/kg, from AUC in plasma and brain; for Kp: mouse, read-out: Mouse plasma/brain ratio
Description: Male C57BL/6 mice were fasted overnight. Compounds of the invention as well as two previously known HDAC6 inhibitors, Compounds A and B, were dissolved in dimethyl acetamide at 10 times the final concentration, then Solutol HS 15 (BASF) was added to a final concentration of 10%. Finally 80% saline was added and vortexed to achieve a clear solution. Fifteen animals were injected via the tail vein with 1 mg/kg compound. Blood was collected by retro-orbital bleed at 5 minutes, 15 minutes, 30 minutes, 1 hour, 2 hours, 4 hours, 8 hours and 24 hours after dosing. At 5 minutes, 30 minutes, 1 hour and 4 hours after dosing three animals per time point were sacrificed and brains were removed. The blood was centrifuged at 2000 g for 5 minutes at 4° C. to obtain plasma. Brain samples were homogenized in PBS. The plasma and brain homogenate were extracted with acetonitrile and the level of compound was analyzed by LC/MS/MS. The level of compound in plasma was calculated from a standard curve in rat plasma and the level in brain was calculated from a standard curve in brain homogenate. The area under the curve in plasma and brain were calculated using WinNonLin software. The brain to plasma ratio was determined using the area under the curve values for the two compartments.

[7] = system: taxol treated rats; assay: Taxol induced neuropathic pain study in rats (Von Frey testing); assay type: in vivo, rat
Description: This study included a histology endpoint in addition to the von Frey testing for paw sensitivity.
Neuropathic pain is induced by a 0.5 ml/kg injection of Taxol (2 mg/kg) administered IP on days 0-12. The development of neuropathic pain is confirmed by measuring mechanical allodynia (Von Frey test) on study day 13.
Allodynic response to tactile stimulation is assessed using the Von Frey apparatus (Touch Test®).
The rat will be placed in an enclosure and positioned on a metal mesh surface, but allowed to move freely. The rats' cabins are covered with red cellophane to diminish environmental disturbances. The test begins after a cessation of exploratory behavior. The set of Von Frey monofilaments provide an approximate logarithmic scale of actual force and a linear scale of perceived intensity.
The operating principle: when the tip of a fiber of given length and diameter is pressed against the skin at right angles, the force of application increases as long as the researcher continues to advance the probe until the fiber bends. After the fiber bends, the probe continues to advance, causing the fiber to bend more, but without additional force being applied. […] The Touch Test™ Sensory Evaluator can be used on the plantar surfaces of the rat's foot. The animal indicates sensation by pulling back its paw. The minimal force needed to elevate the withdrawal reflex is considered/designated as the value of reference. In order to achieve paw withdrawal, the pressure applied is sometimes greater than 60 g, often requiring the researcher to apply enough pressure with the Von Frey filament to actually lift the paw of the naive animal. Decreases in force needed to induce withdrawal are indicative of allodynia, as the force applied is a non-painful stimulus under normal conditions.

Sequence of HDAC1 (Q13547 whole entry): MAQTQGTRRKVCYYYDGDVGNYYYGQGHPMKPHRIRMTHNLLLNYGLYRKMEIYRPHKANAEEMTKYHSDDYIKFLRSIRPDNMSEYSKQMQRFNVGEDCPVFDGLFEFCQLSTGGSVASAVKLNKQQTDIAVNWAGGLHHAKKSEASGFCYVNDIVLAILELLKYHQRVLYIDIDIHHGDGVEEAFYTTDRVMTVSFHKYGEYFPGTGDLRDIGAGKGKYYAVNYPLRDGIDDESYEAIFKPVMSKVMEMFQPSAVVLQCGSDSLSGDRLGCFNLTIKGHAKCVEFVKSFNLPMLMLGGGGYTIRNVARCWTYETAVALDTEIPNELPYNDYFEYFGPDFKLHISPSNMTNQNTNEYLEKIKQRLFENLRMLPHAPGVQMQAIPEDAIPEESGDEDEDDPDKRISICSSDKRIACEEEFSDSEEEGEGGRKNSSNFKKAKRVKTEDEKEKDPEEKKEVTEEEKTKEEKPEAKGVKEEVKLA

Work on `O=C(NO)c1cnc(NC2(c3cc(F)cc(F)c3)CCCCC2)nc1` [Compound 001] yielded a pIC50 [1] of 5.98, a pIC50 [2] of 6.06 and a pIC50 [3] of 5.21. For the same compound, the pIC50 [4] was 8.54, the clearance [5] was 91.7 mL/min/kg and the bioavailability [5] was 11.1%. The Kp [6] was 2.55.

With `O=C(NO)c1cnc(NC2(c3cc(F)ccc3F)CCOCC2)nc1` [Compound 002] the pIC50 [1] was 6.93, the pIC50 [2] was 6.97 and the pIC50 [3] was 6.17. It also gave a pIC50 [4] of 8.62, a clearance [5] of 93.3 mL/min/kg and a bioavailability [5] of 18.4%. For the same compound, the Kp [6] was 0.45.

Work on `O=C(NO)c1cnc(NC2(c3ccccc3)CCC(F)(F)CC2)nc1` [Compound 003] yielded a pIC50 [1] of 6.02, a pIC50 [2] of 6.01 and a pIC50 [3] of 5.36. For the same compound, the pIC50 [4] was 8.43, the clearance [5] was 61.7 mL/min/kg and the bioavailability [5] was 41.5%. For the same compound, the Kp [6] was 0.67, the “withdrawal force (Von Frey)” value ([7]; 1 mg/kg PO b.i.d., study day 15) was 58.30 ± 1.70 g and the “mean group withdrawal force (Von Frey)” value ([7]; study day 13 pre-dosing, last dose on day 12 (b.i.d.)) was 41.10 ± 5.88 g. The “reversal of nociception / tactile allodynia” value ([7]; taxol treated rats, 1, 3, 10 mg/kg PO b.i.d.) was “completely reversed nociception; also recorded: reduced tactile allodynia”.

With `O=C(NO)c1cnc(NC2(c3cccc(F)c3)CCC3(CC2)OCCO3)nc1` [Compound 004] the pIC50 [1] was 6.15, the pIC50 [2] was 6.08 and the pIC50 [3] was 5.74. For the same compound, the pIC50 [4] was 8.41.

`O=C(NO)c1cnc(NC2(c3ccccc3)CC2)nc1` [Compound A, reference compound] gave a clearance [5] of 100 mL/min/kg, a bioavailability [5] of 16.5% and a Mouse plasma/brain ratio [6] of 1.23.

`O=C(NO)c1cnc(NC2(c3cccc(F)c3)CCCCC2)nc1` [Compound B, reference compound] gave a clearance [5] of 38.3 mL/min/kg, a bioavailability [5] of 7.9% and a Mouse plasma/brain ratio [6] of 1.28.

In the case of `NCC1(CC(=O)O)CCCCC1` [gabapentin, reference compound], the “withdrawal force (Von Frey)” value ([7]; 150 mg/kg IP, 2 hours post dosing, study day 13) was 58.30 ± 1.70 g, the “withdrawal force (Von Frey)” value ([7]; 150 mg/kg IP, 2 hours post dosing, study day 14) was 60.00 ± 0.00 g and the “withdrawal force (Von Frey)” value ([7]; 150 mg/kg IP, 2 hours post dosing, study day 15) was 58.30 ± 1.70 g.
